Results reported in article PMC8041433 (Environmental Health Perspectives, 2021).
Values joined by “and” are separate entries in the source; they are usually repeats but may differ in a detail not shown here. Equal values may be shown once. Read-outs that look alike come from different tables or passages of the source.

Columns and labels:
[1] = biological target: AChE in neural stem cell spheroids (Homo sapiens, UniProt P22303); assay: cell-based; conditions: potency (IC50)
AChE in SH-SY5Y cells = AChE in SH-SY5Y cells (Homo sapiens, UniProt P22303); assay: cell-based
recombinant human AChE [2] = biological target: T1, recombinant human AChE (Homo sapiens, UniProt P22303); assay: biochemical; format: biochemical; conditions: for AC50: AC50 (uM)
recombinant human AChE [3] = biological target: T1, recombinant human AChE; assay: biochemical
recombinant human AChE [4] = biological target: T1, recombinant human AChE
recombinant human AChE [5] = biological target: T1, recombinant human AChE; assay: biochemical; remark: listed apart in the source
recombinant human AChE [6] = biological target: T1, recombinant human AChE; assay: biochemical; remark: listed apart in the source
[7] = biological target: AChE in neural stem cells (Homo sapiens, UniProt P22303); assay: cell-based
[8] = biological target: AChE in SH-SY5Y spheroids (Homo sapiens, UniProt P22303); assay: cell-based
[9] = Neural stem cell spheroid (24 h)
[10] = Neural stem cell spheroid (48 h)
[11] = potency (IC50), SH-SY5Y cells monolayer
[12] = potency (IC50), Enzyme with microsomes
[13] = potency (IC50), SH-SY5Y spheroids (24 h)
[14] = potency (IC50), SH-SY5Y spheroids (48 h)
For IR or R in this document: key: Reversible (R); Irreversible (IR); ND, not detected in enzyme-based AChE inhibition assay from current study.

T1 sequence (P22303 32-614): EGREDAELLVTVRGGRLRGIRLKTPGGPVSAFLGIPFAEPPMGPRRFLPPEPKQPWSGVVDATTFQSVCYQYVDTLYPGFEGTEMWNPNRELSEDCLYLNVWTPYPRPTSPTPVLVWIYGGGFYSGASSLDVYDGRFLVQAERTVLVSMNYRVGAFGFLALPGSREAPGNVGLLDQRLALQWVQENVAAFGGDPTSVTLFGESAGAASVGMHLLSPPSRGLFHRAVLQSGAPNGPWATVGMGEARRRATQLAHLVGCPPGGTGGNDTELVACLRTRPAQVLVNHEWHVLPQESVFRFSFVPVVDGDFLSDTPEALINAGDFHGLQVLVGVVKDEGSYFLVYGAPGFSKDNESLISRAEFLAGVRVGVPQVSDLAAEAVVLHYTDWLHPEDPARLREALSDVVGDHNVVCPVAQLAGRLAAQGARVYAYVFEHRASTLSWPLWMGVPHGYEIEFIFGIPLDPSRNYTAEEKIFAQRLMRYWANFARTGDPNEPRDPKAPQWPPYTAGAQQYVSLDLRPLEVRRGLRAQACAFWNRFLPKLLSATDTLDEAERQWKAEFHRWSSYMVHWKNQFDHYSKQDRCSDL
AChE in neural stem cells, sequence (P22303 32-614): as above
AChE in neural stem cell spheroids, sequence (P22303 32-614): as above
AChE in SH-SY5Y spheroids, sequence (P22303 32-614): as above
AChE in SH-SY5Y cells, sequence (P22303 32-614): as above

Compound | IC50 [1, 9] | IC50 [1, 10] | CC-v2 (curve classes) (AChE in SH-SY5Y cells) | IC50 (AChE in SH-SY5Y cells; IC50 (uM)) | IC50 (AChE in SH-SY5Y cells; [11]) | AC50 (recombinant human AChE [2]) | IC50 (recombinant human AChE [3]) | CC-v2 (curve classes) (recombinant human AChE [4]) | CC-v2 (curve classes) (recombinant human AChE [5]) | IC50 (recombinant human AChE [5]; potency (IC50), Enzyme) | IC50 (recombinant human AChE [6]; [12]) | IC50 [7] | IC50 [8, 13] | IC50 [8, 14] | Efficacy (recombinant human AChE [4]) | Efficacy (recombinant human AChE [5]) | IR or R (recombinant human AChE [2]) | AC50 (recombinant human AChE [2]; activity_5) | AC50 (recombinant human AChE [2]; activity_10) | AC50 (recombinant human AChE [2]; activity_60) | further results
CCCCSP(=O)(SCCCC)SCCCC [Tribufos] | 31.4 µM | 14 µM | -2.2 and -1.2 | 28.3 µM and 31 µM and 17.8 µM and 27.6 µM and 15.9 µM and 34.8 µM | 15.3 µM | 88.5 µM | 25.1 ± 2.88 µM | -1.1 | -2.2 and 4 | 35.3 µM | 3.66 µM | 39.8 µM | 12.2 µM | 12 µM |  |  |  |  |  |  | IC50 (recombinant human AChE [5]; read-out: IC50): 35.6 µM; IC50 (recombinant human AChE [6]; IC50 (uM)): 5.02 µM and 5.51 µM
CCOC(=O)CC(SP(=O)(OC)OC)C(=O)OCC (centres unmarked) [Malaoxon] | 5.05 ± 3.3 µM | 9.46 µM | -1.1 | 3.56 µM and 3.02 µM and 3.17 µM and 2.83 µM | 3.05 ± 0.52 µM | 22.2 µM (2×) and 9.93 µM and 7.89 µM and 25 µM and 8.85 µM (2×) and 5.59 µM and 11.1 µM | 4.62 ± 0.31 µM | -2.1 | -1.1 | 1.46 µM | 4.43 µM | 5.86 ± 1.05 µM | 4.09 ± 3.42 µM | 3.95 µM |  |  |  |  |  |  | 
CCOP(=O)(OCC)Oc1cc(C)nc(C(C)C)n1 [Diazoxon] | 0.22 µM | 0.39 ± 0.07 µM | -1.1 | 0.143 µM and 0.179 µM and 0.201 µM | 0.26 ± 0.03 µM | 44.6 µM | 2.25 ± 0.26 µM | -1.1 | -1.1 | 1.12 ± 0.12 µM | 3.69 ± 0.24 µM | 0.24 ± 0.04 µM | 2.3 ± 0.96 µM |  | -95.678 | -95.835 |  |  |  |  | IC50 ([8]; read-out: potency (IC50), SH-SY5Y spheroids (48 h)): 0.5 µM
C=CC[N+]1([C@H]2C[C@H]3[C@@H]4CC[C@H]5C[C@H](OC(C)=O)[C@@H](N6CCCCC6)C[C@]5(C)[C@H]4CC[C@]3(C)[C@H]2OC(=O)CC)CCCCC1 [Rapacuronium bromide, reference compound] | 3.64 µM | 1.37 µM | -2.1 | 27.5 µM and 30.9 µM and 34.7 µM | 16 µM |  | 26.3 ± 1.71 µM | 4 | -2.2 | 22.6 µM | 26.3 µM | 5.27 µM | 8.24 µM | 22.6 µM | 0 | -53.371 | R | 21.7 µM and 19.3 µM | 13.7 µM and 21.7 µM and 19.3 µM | 21.7 µM and 38.5 µM and 19.3 µM | IC50 (recombinant human AChE [5]; IC50 (uM)): 30.9 µM
O=C(O)/C=C/C(=O)O.O=C1c2ccccc2C(=O)N1CCc1noc(-c2ccc(CN3CCCCCC3)s2)n1 [PharmaGSID_48172] | 17.1 ± 3.86 µM | 20.5 µM | -1.1 | 6.51 µM and 8.19 µM | 16.3 ± 1.86 µM |  | 21.2 ± 1.44 µM | -2.2 | -2.1 | 11.1 ± 1.52 µM | 24.7 ± 1.61 µM | 36.3 µM | 17.5 ± 16.2 µM | 14.5 ± 1.67 µM | -51.694 | -99.042 | R | 22.9 µM and 36.3 µM and 32.3 µM | 20.4 µM and 36.3 µM and 28.8 µM | 32.3 µM and 40.7 µM and 22.9 µM | IC50 (recombinant human AChE [5]; IC50 (uM)): 23.1 µM; IC50 (recombinant human AChE [6]; IC50 (uM)): 58 µM
CCOP(=S)(OCC)Oc1ccc([N+](=O)[O-])cc1 [Parathion] | 3.9 µM | 9.13 µM | -2.1 | 13.8 µM and 64.1 µM and 71.9 µM | 11.3 µM |  | 18 ± 2.29 µM | -1.1 |  | 22.8 µM | 1.27 µM | 6.88 µM | 18.1 µM | 10.6 µM |  |  |  | 24.3 µM and 30.6 µM | 27.3 µM and 24.3 µM | 21.7 µM and 19.3 µM | 
CNC(=O)Oc1ccc(N(C)C)c(C)c1 [Aminocarb] | 25.7 ± 7.15 µM | 29.1 µM | -1.1 | 5.64 µM and 7.1 µM and 6.33 µM | 5 ± 0.57 µM | 17.7 µM and 22.2 µM and 12.5 µM and 28 µM and 25 µM and 7.03 µM and 11.1 µM and 7.89 µM | 9.57 ± 0.62 µM | -2.1 | -1.1 | 7.92 ± 0.91 µM | 8.21 ± 0.55 µM | 11.7 ± 2.1 µM | 12.3 ± 9.41 µM | 6.85 ± 3.73 µM | -71.886 | -98.887 |  |  |  |  | 
CNC(=O)Oc1cc(C)cc(C(C)C)c1 [Promecarb] | 0.93 ± 0.07 µM | 0.66 µM | -1.1 | 0.633 µM and 0.564 µM | 0.88 ± 0.1 µM |  | 0.61 ± 0.08 µM | -1.1 | -1.1 | 0.48 ± 0.12 µM | 0.68 ± 0.11 µM | 1.35 ± 0.18 µM | 1.38 ± 1.23 µM | 0.68 ± 0.09 µM | -98.92 | -99.272 | R | 1.98 µM and 1.25 µM | 0.885 µM and 1.77 µM | 0.703 µM and 0.498 µM and 1.11 µM | 
